Data: ChEMBL document CHEMBL1821630, “Synthesis and antitumor activity of new sulfonamide derivatives of thiadiazolo[3,2-a]pyrimidines” (Eur J Med Chem, 2011)
≈ marks a conversion by molar mass, not a printed value. Calls of active or inactive are those of the source. The calls are words filed in the database; no cut-off is given here.

Columns and labels:
Nucleic Acid [1] = test: Binding affinity to DNA using anisaldehyde reagent by TLC method; format: nucleic-acid assay
Nucleic Acid [2] = test: Displacement of methyl green dye from DNA after 24 hrs by spectrophotometric analysis; format: nucleic-acid assay
Ehrlich [3] = test: Antitumor activity against mouse EAC cells xenografted in Swiss albino mouse assessed as reduction in viable tumor cells at 100 ug after 5 days using giemsa staining by microscopy; format: functional
[4] = Antitumor activity against mouse EAC cells xenografted in Swiss albino mouse assessed as increase in lifespan of organism at 100 ug administered 24 hrs post inoculation for 9 days; format: functional, Ehrlich
Mus musculus [5] = test: Toxicity in Swiss albino mouse xenografted with mouse EAC assessed as ALT level at 100 ug (reference value: 3.7 u/L); format: organism-based; conditions: in vivo
Mus musculus [6] = test: Toxicity in Swiss albino mouse xenografted with mouse EAC assessed as haemoglobin level at 100 ug (reference value: 13.4 per g%); format: organism-based; conditions: in vivo
Mus musculus [7] = test: Toxicity in Swiss albino mouse xenografted with mouse EAC assessed as RBC level at 100 ug (reference value: 5.1/10^6 mm-3); format: organism-based; conditions: in vivo
Mus musculus [8] = test: Toxicity in Swiss albino mouse xenografted with mouse EAC assessed as total WBC level at 100 ug (reference value: 4.35/10^3 mm3); format: organism-based; conditions: in vivo
Mus musculus [9] = test: Toxicity in Swiss albino mouse xenografted with mouse EAC assessed as RBC level at 20 mg/kg, ip (reference value: 5.1/10^6 mm-3); format: organism-based; set-up: dose 20 mg/kg, route intraperitoneal; conditions: in vivo
Mus musculus [10] = test: Toxicity in Swiss albino mouse xenografted with mouse EAC assessed as haemoglobin level at 20 mg/kg, ip (reference value: 13.4 per g%); format: organism-based; set-up: dose 20 mg/kg, route intraperitoneal; conditions: in vivo
Mus musculus [11] = test: Toxicity in Swiss albino mouse xenografted with mouse EAC assessed as ALT level at 20 mg/kg, ip (reference value: 3.7 u/L); format: organism-based; set-up: dose 20 mg/kg, route intraperitoneal; conditions: in vivo
Ehrlich [12] = test: Antitumor activity against mouse EAC cells xenografted in Swiss albino mouse assessed as reduction in viable tumor cells at 20 mg/kg, ip after 5 days using giemsa staining by microscopy; format: functional, organism-based; set-up: dose 20 mg/kg
Mus musculus [13] = test: Toxicity in Swiss albino mouse xenografted with mouse EAC assessed as total WBC level at 20 mg/kg, ip (reference value: 4.35/10^3 mm3); format: organism-based; set-up: dose 20 mg/kg, route intraperitoneal; conditions: in vivo
[14] = Antitumor activity against mouse EAC cells xenografted in Swiss albino mouse assessed as increase in lifespan of organism at 20 mg/kg, ip administered 24 hrs post inoculation for 9 days; format: functional, Ehrlich; conditions: route intraperitoneal

SMILES | Activity (Nucleic Acid [1]) | IC50 (Nucleic Acid [2]) [µg/mL] | further results
Cc1ccc(/N=N/c2c(C)nc3sc(S(N)(=O)=O)nn3c2=O)cc1 | inactive | 81 (≈ 222 µM) | 
NS(=O)(=O)c1nn2c(=O)ccnc2s1 |  | 70 (≈ 301 µM) | 
Cc1cccc(C2=CC(c3ccccc3)N3N=C(S(N)(=O)=O)SC3=N2)c1 (centres undefined) |  | 72 (≈ 187 µM) | 
Cc1cc(=O)n2nc(S(N)(=O)=O)sc2n1 |  | 76 (≈ 309 µM) | 
COc1ccc(C2C=C(c3ccc(N)cc3)N=C3SC(S(N)(=O)=O)=NN32)cc1 (centres undefined) | inactive | 81 (≈ 195 µM) | 
Cc1nc2sc(S(N)(=O)=O)nn2c(=O)c1/N=N/c1ccc([N+](=O)[O-])cc1 | inactive | 81 (≈ 205 µM) | 
Cc1nc2sc(S(N)(=O)=O)nn2c(=O)c1/N=N/c1ccc(Br)cc1 |  | 74 (≈ 172 µM) | 
NS(=O)(=O)C1=NN2C(=NC(c3ccccc3)=CC2c2cc([N+](=O)[O-])ccc2Cl)S1 (centres undefined) |  | 80 (≈ 178 µM) | 
NS(=O)(=O)C1=NN2C(=NC(c3ccccc3)=CC2c2ccc(Cl)cc2)S1 (centres undefined) | Active | 40 (≈ 98.8 µM) | Activity (Ehrlich [3]): Active; Activity [4]: 42.86%
Nc1ccc(C2=CC(c3ccc(Cl)cc3)N3N=C(S(N)(=O)=O)SC3=N2)cc1 (centres undefined) | Active | 64 (≈ 152 µM) | Activity (Ehrlich [3]): Active; Activity (Mus musculus [5]): 6.7%; Activity [4]: 71.43%; Activity (Mus musculus [6]): 11.1%; Activity (Mus musculus [7]): 5.96%; Activity (Mus musculus [8]): 9.45%
N=C1CC(=O)N=C2SC(S([NH-])(=O)=O)=NN12.[Na+] |  | 76 | 
Cc1nc2sc(S(N)(=O)=O)nn2c(=O)c1/N=N/c1ccccc1 |  | 77 (≈ 220 µM) | 
COc1ccc(C2C=C(c3ccccc3)N=C3SC(S(N)(=O)=O)=NN32)cc1OC (centres undefined) | Active | 62 (≈ 144 µM) | Activity (Ehrlich [3]): Active; Activity [4]: 57.14%
COc1ccc(/N=N/c2c(C)nc3sc(S(N)(=O)=O)nn3c2=O)cc1 | inactive | 81 (≈ 213 µM) | 
NS(=O)(=O)c1nn2c(=O)cc(Cl)nc2s1 |  | 79 (≈ 296 µM) | 
NS(=O)(=O)C1=NN2C(=NC(c3ccccc3)=CC2c2ccc([N+](=O)[O-])cc2)S1 (centres undefined) | inactive | 81 (≈ 195 µM) | 
CC[n+]1c(-c2ccccc2)c2cc(N)ccc2c2ccc(N)cc21.[Br-] [HOMIDIUM BROMIDE] |  | 1.4 | 
Cc1nc2sc(S(N)(=O)=O)nn2c(=O)c1/N=N/c1ccc(Cl)cc1 |  | 74 (≈ 192 µM) | 
NS(=O)(=O)c1nn2c(=O)cc(C(=O)NNc3ccccc3)nc2s1 | inactive | 81 (≈ 221 µM) | 
O=c1[nH]cc(F)c(=O)[nH]1 [FLUOROURACIL] |  |  | Activity (Mus musculus [9]): 5.87%; Activity (Mus musculus [10]): 15.6%; Activity (Mus musculus [11]): 6.9%; Activity (Ehrlich [12]): Active; Activity (Mus musculus [13]): 14.7%; Activity [14]: 42.86%
